Measurements reported in publication PMC4890880 (ACS infectious diseases, 2016).
Where two headings read alike, the source gives them in different places.

Tests used:
[1] = tested on: Plasmodium berghei (Pb-Luc) exoerythrocytic-stage parasites; settings: for normalized signal at concentration 0.000508053 / normalized signal at concentration 0.00152416 / normalized signal at concentration 0.00457247 / normalized signal at concentration 0.0137174 / normalized signal at concentration 0.0411523 / normalized signal at concentration 0.123457 / normalized signal at concentration 0.37037 / normalized signal at concentration 1.11111 / normalized signal at concentration 3.33333 / normalized signal at concentration 10: fraction of control; for IC50: read-out: PbLuc_IC50; for normalised signal at concentration 10 (first series): concentration 10, first series of dose columns; for normalised signal at concentration 10 (second series): concentration 10, second series of dose columns
HepG2-A16-CD81EGFP cells = settings: for IC50: read-out: Tox_IC50, HepG2 cytotoxicity
[2] = tested on: Plasmodium berghei (Pb-Luc) exoerythrocytic-stage parasites; test: microbe, parasite or virus in culture
[3] = second series of columns (replicate)
[4] = sheet 2nd round, maximal inhibition in dose response
[5] = first series of dose-response columns
[6] = sheet 2nd round, Broad compounds, dose response
[7] = second series of dose-response columns
[8] = sheet "2nd round", Broad compounds, dose response top concentration 10

## CO[C@H]1CN(C)C(=O)c2cc(NC(=O)c3cccc(F)c3)ccc2OC[C@H](C)N(C)C[C@H]1C [BRD-K79512815-001-01-8]
[1]; first series of columns
  normalized signal at concentration 0.000508053: 0.92
  normalized signal at concentration 0.00152416: 0.8929
  normalized signal at concentration 0.00457247: 0.8757
  normalized signal at concentration 0.0137174: 1.1664
  normalized signal at concentration 0.0411523: 0.9194
  normalized signal at concentration 0.123457: 0.814
  normalized signal at concentration 0.37037: 0.9475
  normalized signal at concentration 1.11111: 0.9407
  normalized signal at concentration 3.33333: 0.9302
  normalized signal at concentration 10: 0.6026
[1]; sheet 2nd round, Pb-Luc exoerythrocytic stage, 10-point dose response, top concentration 10
  IC50: > 10 µM
[1]; [3]
  normalized signal at concentration 0.000508053: 0.9673
  normalized signal at concentration 0.00152416: 1.022
  normalized signal at concentration 0.00457247: 0.9573
  normalized signal at concentration 0.0137174: 0.903
  normalized signal at concentration 0.0411523: 0.8874
  normalized signal at concentration 0.123457: 0.788
  normalized signal at concentration 0.37037: 0.9616
  normalized signal at concentration 1.11111: 0.8772
  normalized signal at concentration 3.33333: 0.9295
  normalized signal at concentration 10: 0.8924
[1]; [4]
  PbLuc_max_inhibition (%): 40%
HepG2-A16-CD81EGFP cells; sheet 2nd round
  IC50: > 10 µM
HepG2-A16-CD81EGFP cells; [4]
  Tox_max_inhibition (%): 6%

## COCC(=O)N1C[C@H](C)[C@@H](OC)CN(C)C(=O)c2ccc(NC(=O)Nc3cccc(F)c3)cc2OC[C@@H]1C [BRD-K86826411-001-01-1]
[1]; [5]
  normalized signal at concentration 10: 0.9867
[1]; first series
  normalized signal at concentration 0.000508053: 0.8374
  normalized signal at concentration 0.00152416: 0.9593
  normalized signal at concentration 0.00457247: 1.078
  normalized signal at concentration 0.0137174: 1.13
  normalized signal at concentration 0.0411523: 1.203
  normalized signal at concentration 0.123457: 1.151
  normalized signal at concentration 0.37037: 1.155
  normalized signal at concentration 1.11111: 1.129
  normalized signal at concentration 3.33333: 1.057
[1]; [6]
  IC50: > 10 µM
[1]; [7]
  normalized signal at concentration 10: 0.6676
[1]; second series
  normalized signal at concentration 0.000508053: 0.905
  normalized signal at concentration 0.00152416: 1.0576
  normalized signal at concentration 0.00457247: 1.018
  normalized signal at concentration 0.0137174: 1.011
  normalized signal at concentration 0.0411523: 0.9885
  normalized signal at concentration 0.123457: 1.0489
  normalized signal at concentration 0.37037: 0.9498
  normalized signal at concentration 1.11111: 1.1227
  normalized signal at concentration 3.33333: 1.155
[1]; [4]
  PbLuc_max_inhibition (%): 33%
HepG2-A16-CD81EGFP cells; sheet 2nd round
  IC50: > 10 µM
HepG2-A16-CD81EGFP cells; [4]
  Tox_max_inhibition (%): 13%

## CCc1csc(N2[C@H](CO)[C@H](c3ccccc3)[C@@H]2CNC)n1 [BRD-K87640608-001-01-8]
[1]; [5]
  normalized signal at concentration 10: 0.6764
[1]; first series
  normalized signal at concentration 0.000508053: 0.8428
  normalized signal at concentration 0.00152416: 0.8502
  normalized signal at concentration 0.00457247: 0.7149
  normalized signal at concentration 0.0137174: 0.7931
  normalized signal at concentration 0.0411523: 0.9257
  normalized signal at concentration 0.123457: 0.8195
  normalized signal at concentration 0.37037: 0.9077
  normalized signal at concentration 1.11111: 1.056
  normalized signal at concentration 3.33333: 0.9058
[1]; [6]
  IC50: > 10 µM
[1]; [7]
  normalized signal at concentration 10: 0.7611
[1]; second series
  normalized signal at concentration 0.000508053: 1.024
  normalized signal at concentration 0.00152416: 0.9242
  normalized signal at concentration 0.00457247: 1.045
  normalized signal at concentration 0.0137174: 0.9989
  normalized signal at concentration 0.0411523: 0.8698
  normalized signal at concentration 0.123457: 0.9345
  normalized signal at concentration 0.37037: 1.174
  normalized signal at concentration 1.11111: 1.035
  normalized signal at concentration 3.33333: 0.7843
[1]; [4]
  PbLuc_max_inhibition (%): 32%
HepG2-A16-CD81EGFP cells; sheet 2nd round
  IC50: > 10 µM
HepG2-A16-CD81EGFP cells; [4]
  Tox_max_inhibition (%): 3.76%

## COc1ccccc1S(=O)(=O)N(C)C[C@@H]1OCc2ccccc2-c2ccccc2C(=O)N([C@H](C)CO)C[C@@H]1C [BRD-K88384060-001-01-3]
[1]
  normalised signal at concentration 0.000508053 (first series): 0.762
  normalised signal at concentration 0.000508053 (second series): 0.8443
  normalised signal at concentration 0.00152416 (first series): 0.9256
  normalised signal at concentration 0.00152416 (second series): 0.8309
  normalised signal at concentration 0.00457247 (first series): 0.8786
  normalised signal at concentration 0.00457247 (second series): 0.8245
  normalised signal at concentration 0.0137174 (first series): 0.8282
  normalised signal at concentration 0.0137174 (second series): 0.879
  normalised signal at concentration 0.0411523 (first series): 0.9277
  normalised signal at concentration 0.0411523 (second series): 0.9618
  normalised signal at concentration 0.123457 (first series): 0.8826
  normalised signal at concentration 0.123457 (second series): 1.0267
  normalised signal at concentration 0.37037 (first series): 0.7577
  normalised signal at concentration 0.37037 (second series): 1.11
  normalised signal at concentration 1.11111 (first series): 0.8863
  normalised signal at concentration 1.11111 (second series): 0.7661
  normalised signal at concentration 3.33333 (first series): 0.8204
  normalised signal at concentration 3.33333 (second series): 0.8055
  normalised signal at concentration 10 (first series): 0.8642
  normalised signal at concentration 10 (second series): 0.7248
[1]; [8]
  IC50: > 10 µM
[1]; sheet "2nd round"
  PbLuc_max_inhibition (%): 28%
HepG2-A16-CD81EGFP cells; sheet "2nd round"
  IC50: > 10 µM
  Tox_max_inhibition (%): 2.77%

## COc1ccc2c3c([nH]c2c1)[C@H](CO)N(Cc1ccccc1)CC31CN(C(=O)c2ccccn2)C1 [BRD-K93348054-001-01-9]
[1]
  normalised signal at concentration 0.000508053 (first series): 1.077
  normalised signal at concentration 0.000508053 (second series): 1.157
  normalised signal at concentration 0.00152416 (first series): 0.9906
  normalised signal at concentration 0.00152416 (second series): 0.8767
  normalised signal at concentration 0.00457247 (first series): 0.8635
  normalised signal at concentration 0.00457247 (second series): 1.079
  normalised signal at concentration 0.0137174 (first series): 1.042
  normalised signal at concentration 0.0137174 (second series): 0.9363
  normalised signal at concentration 0.0411523 (first series): 0.9232
  normalised signal at concentration 0.0411523 (second series): 0.9999
  normalised signal at concentration 0.123457 (first series): 0.9966
  normalised signal at concentration 0.123457 (second series): 1.053
  normalised signal at concentration 0.37037 (first series): 0.8299
  normalised signal at concentration 0.37037 (second series): 0.8736
  normalised signal at concentration 1.11111 (first series): 0.8048
  normalised signal at concentration 1.11111 (second series): 0.7
  normalised signal at concentration 3.33333 (first series): 0.6468
  normalised signal at concentration 3.33333 (second series): 0.6466
  normalised signal at concentration 10 (first series): 0.6758
  normalised signal at concentration 10 (second series): 0.621
[1]; [8]
  IC50: > 10 µM
[1]; sheet "2nd round"
  PbLuc_max_inhibition (%): 38%
HepG2-A16-CD81EGFP cells; sheet "2nd round"
  IC50: > 10 µM
  Tox_max_inhibition (%): 18%

## C[C@@H]1CN([C@@H](C)CO)C(=O)c2cccc(NC(=O)c3ccc(-c4nccs4)cc3)c2O[C@H]1CN(C)C(=O)Nc1ccc(C(F)(F)F)cc1 [BRD-K97485207-001-01-1]
[1]; [5]
  normalized signal at concentration 10: 0.53
[1]; first series
  normalized signal at concentration 0.000508053: 0.80
  normalized signal at concentration 0.00152416: 0.94
  normalized signal at concentration 0.00457247: 0.89
  normalized signal at concentration 0.0137174: 0.64
  normalized signal at concentration 0.0411523: 0.84
  normalized signal at concentration 0.123457: 1.04
  normalized signal at concentration 0.37037: 0.85
  normalized signal at concentration 1.11111: 0.73
  normalized signal at concentration 3.33333: 0.73
[1]; [6]
  IC50: > 10 µM
[1]; [7]
  normalized signal at concentration 10: 0.66
[1]; second series
  normalized signal at concentration 0.000508053: 0.85
  normalized signal at concentration 0.00152416: 0.90
  normalized signal at concentration 0.00457247: 0.80
  normalized signal at concentration 0.0137174: 0.89
  normalized signal at concentration 0.0411523: 0.77
  normalized signal at concentration 0.123457: 0.77
  normalized signal at concentration 0.37037: 0.95
  normalized signal at concentration 1.11111: 0.95
  normalized signal at concentration 3.33333: 0.97
[1]; [4]
  PbLuc_max_inhibition (%): 47%
HepG2-A16-CD81EGFP cells; sheet 2nd round
  IC50: > 10 µM
HepG2-A16-CD81EGFP cells; [4]
  Tox_max_inhibition (%): 6.47%

## CCOc1ccc(Nc2c3ccccc3nc3ccccc23)cc1 [MMV000304]
[2]; read-out: Inhibition% @ 50 uM rep1
  inhibition at 50 µM: 104%
[2]; read-out: Inhibition% @ 50 uM rep2
  inhibition at 50 µM: 104%
HepG2-A16-CD81EGFP cells; human, 50 uM
  HepG2 Tox% @ 50 uM rep1: 102%
